This is an account of results in patent US6489449B2, “Peptides for inhibition of HIV infection” (priority 2000, dated 2002).

Where no end group is shown, it is not given here.

The data set in a line: Secondary structure analysis by circular dichroism (helical content). The following applies: for Helical content (%) 30% TFE: PBS containing 30% trifluoroethanol, 50 μM peptide; for Helical content (%) PBS: PBS pH 7.0, 50 μM peptide. Type of data set: physicochemical. As for the experimental part: The secondary structures of peptides synthesized in the above Example were analyzed by means of circular dichroism and the circular dichroism spectra of synthesized peptides were analyzed by using 715 CD spectropolarimeter (Jasco Co., Ltd., JAPAN). The peptides of WT(SEQ ID NO. 4), MT(SEQ ID NO. 5), Ncap-MT(SEQ ID NO. 7), Caps-WT(SEQ ID NO. 8), Caps-MT(SEQ ID NO. 9) were dissolved in PBS(pH 7.0) with 100 mM sodium phosphate and 150 mM NaCl to make the final concentration of each peptide 50 μM and were placed for spectrum analyses.
(2)Analyses of Secondary Structures of Peptides in Phosphate Buffered Saline (PBS) containing Trifluoroethanol Experiments were performed the same as described in the above Experimental Example 1 (1) with the exception that the PBS contained 30% trifluoroethanol.

As for “APKEWMAWAREIAAYAKLIAALI-NH2 [Ncap-MT, APKEWMaWaREIaaYakLIaaLI]”, the “Helical content (%) 30% TFE” value is recorded as 68% and the “Helical content (%) PBS” value stood at 69%.

Turning to “APKEWMEWDREINNYTSLIHSLIKQGI-NH2 [Caps-WT]”, the “Helical content (%) 30% TFE” value was determined as 77% and the “Helical content (%) PBS” value is 21%.

On to WMEWDREINNYTSLIHSLI [WT], for which the “Helical content (%) 30% TFE” value amounted to 24% and the “Helical content (%) PBS” value is 18%.
